US7959951B2, “Nitric oxide and its biomedical significance” (The Research Foundation at State University of New York, priority 2002, dated 2011)

Test system: E. coli bacteria
Experiment: Inhibition of bacterial growth in LB broth culture
Assay type: cell-based
Conditions: One μg/ml in LB broth, 37° C, streaked on LB-agar
Description: A dried, powdered, formulation of a 1:1 mixture of the wheat grass extract and white willow bark extract prepared in Example 1 above was tested for its ability to inhibit bacterial growth in culture. The formulation was reconstituted in 10 ml of LB broth (Amersham Biosciences, Inc.). The broth was then inoculated with E. coli bacteria and incubated for 5 and 24 hours at 37° C. 20 μl of the cultures were streaked on LB-agar plates and incubated overnight at 37° C. […] An additional control experiment was conducted with the known antibacterial agent, SNAP. One μg/ml SNAP was added to LB broth. The broth was then inoculated with E. coli bacteria and incubated for 5 and 24 hours at 37° C. 20 μl of the cultures were streaked on LB-agar plates and incubated overnight at 37° C. Bacterial growth was decreased in the SNAP culture at 5 and 24 hours, as compared to the control.

CC(=O)N[C@@H](C(=O)O)C(C)(C)SN=O (racemic) [SNAP]
bacterial growth at 5 and 24 hours compared to control: decreased
